In assay [1] the test system is T1, MDH (malate dehydrogenase, major isozyme, DEAE peak II) of P. verweyi from WLT.
T1 construct: gene MDH1; native, purified from host tissue extract of symbiotic coral; about 38 kDa by SDS-PAGE, native about 64 kDa, dimer
The assay is described as follows: NADH oxidation, absorbance at […] nm. Type of assay: biochemical, Platygyra verweyi. Conditions: 100 mM phosphate pH 7.0, about 27 °C, read-out: apparent Km.

Assay [2] deals with T2, MDH (malate dehydrogenase, major isozyme, DEAE peak II) of P. verweyi from NPP-OL.
T2 construct: gene MDH1; native, purified from host tissue extract of symbiotic coral; about 39 kDa by SDS-PAGE, native about 67 kDa, dimer
The assay is described as follows: NADH oxidation, absorbance at […] nm. It is filed as biochemical, Platygyra verweyi. Conditions: 100 mM phosphate pH 7.0, about 27 °C, read-out: apparent Km.

The mark [3] stands for this setting: NADH varied 38-95 µM, OAA fixed (1 mM [sic]).
[4] abbreviates: OAA varied 14-29 µM, NADH fixed (3 mM as printed).

Structures are written as SMILES. Where two headings read alike, the source gives them in different places.

What is called Km is the concentration of substrate that gives half-maximal velocity. As for `NC(=O)C1=CN([C@@H]2O[C@H](COP(=O)(O)OP(=O)(O)OC[C@H]3O[C@@H](n4cnc5c(N)ncnc54)[C@H](O)[C@@H]3O)[C@@H](O)[C@H]2O)C=CC1` [NADH], the Km in assay [1] (setting [3]) is 12.7 µM; in assay [2] (setting [3]) it was 7.5 µM.

As to `O=C(O)CC(=O)C(=O)O` [oxaloacetate], the Km is 5.7 µM in assay [1] (setting [4]) and 9.4 µM in assay [2] (setting [4]).

Values taken from PMC6748984, “The coral Platygyra verweyi exhibits local adaptation to long-term thermal stress through host-specific physiological and enzymatic response” (Scientific Reports, 2019).
